How the values were obtained:
[1] = tested on: TNSALP-null (Akp2^−/−) mice, in vivo model of bone disease (WT, Het, KO); test: MicroCT of femur trabecular bone (Example 2)
Method: (§1) TNSALP-null (Akp2^−/−) mice served as an in vivo model of bone disease to analyze the effects of the iminosugar, Miglustat.
(§2) Mice were obtained, bred and genotyped as described above. Five mice of each genotype (Wild-type (WT), heterozygous (Het), and homozygous (KO)) were included in each treatment group (i.p. administration of PBS, 400 mg/kg Miglustat, and 1200 mg/kg Miglustat as described above). A total of 44 mice were analyzed (1 Akp2^−/− homozygous mouse was omitted in the PBS group). Mice were scanned using microCT and analyzed as described above. Cortical bone in the middle 20% of bone length from trochanter to distal condyles in the femur was scanned and cortical thickness and bone mineral density were obtained. Cortical thickness (Ct.Th, μm) was used as an indication of average thickness of cortical bone. Trabecular bone of the final 625 μm before the femoral growth plate was scanned.
Bone volume fraction is the ratio of the segmented bone volume to the total volume of the region of interest.
Trabecular thickness was measured as illustrated in FIG. 23. […] Trabecular separation is the mean distance between trabeculae assessed using direct 3D methods as illustrated in FIG. 25.
As depicted in FIG. 26, the trabecular number changed with Miglustat in both heterozygotes and homozygotes treated with Miglustat. As depicted in FIG. 27, structure model index (SMI) increased in homozygous AKP mice treated with Miglustat. […] SMI represents an indicator of the structure of the trabeculae. SMI will be zero for parallel plates and 3 for cylindrical rods.
Connectivity density is a measure of the degree of connectivity of trabeculae normalized by total volume.

[2] = tested on: TNSALP-null (Akp2^−/−) mice (WT, KO); test: MicroCT of trabecular bone in the lumbar vertebrae (Example 2); assay type: in vivo
Method: as §1, §2
In addition to microCT analysis of femurs, microCT analysis was performed on trabecular bone in the lumbar vertebrae. […] Bone volume fraction of vertebrae is the ratio of the segmented bone volume to the total volume of the region of interest.
As depicted in FIG. 30, trabecular thickness (Tb.Th, mm) increased at 400 mg/kg of Miglustat. The profile of trabecular thickness in spine without treatment is different than femoral trabecular thickness. Trabecular thickness is the mean thickness or trabeculae assessed using direct 3D methods described above.
The profile of trabecular separation in spine is different than in femoral. Trabecular separation is the mean distance between trabeculae assessed using direct 3D methods described above.
The profile and baseline number of trabeculae in spine was different than in femoral. Trabecular number is the measure of the average number of trabeculae per unit length.
As depicted in FIG. 33, structure model index decreased in homozygote mice treated with Miglustat. […] As discussed previously, SMI is an indicator of the structure of the trabeculae. SMI will be zero for parallel plates and 3 for cylindrical rods.
As depicted in FIG. 34, the connectivity density increased after treatment of homozygotes with high doses of Miglustat. As described above, connectivity density is a measure of the degree of connectivity of trabeculae normalized by total volume.
As depicted in FIG. 35, the degree of anisotropy increased with Miglustat meaning that treatment affected the orientation of trabeculae in the bone. Degree of anisotropy defines the direction and magnitude of the preferred orientation of trabeculae and uses the ratio between the maximum and minimum radii of the mean intercept length ellipsoid.

[3] = tested on: TNSALP-null (Akp2^−/−) mice (WT, Het, KO); test: X-Rays of femurs (Example 2); assay type: in vivo; conditions: 400 and 1200 mg/kg Miglustat, FIGS. 13A-13I
Method: FIGS. 13A-13I are X-Rays of femurs from Wild-type mice administered PBS (WT-PBS; FIG. 13A), Heterozygous mice administered PBS (Het-PBS; FIG. 13B), Homozygous mice administered PBS (KO-PBS; FIG. 13C), Wild-type mice administered 400 mg/kg Miglustat (WT-400 mg/kg; FIG. 13D), Heterozygous mice administered 400 mg/kg Miglustat (Het-400 mg/kg; FIG. 13E), Homozygous mice administered 400 mg/kg Miglustat (KO-400 mg/kg; FIG. 13F), Wild-type mice administered 1200 mg/kg Miglustat (WT-1200 mg/kg; FIG. 13G), Heterozygous mice administered […] Miglustat (Het-1200 mg/kg; FIG. 13H), Homozygous mice administered […] Miglustat (KO-1200 mg/kg; FIG. 13I) showing increased bone at primary ossification centers (arrowheads).
Full-body ventral and side-view x-rays were taken after euthanizing the mice. The left anatomical legs were dissected to obtain the femoral bones. Femurs were then frozen before being placed in 10% formalin the day prior to microCT scanning. […]
Mice were obtained, bred and genotyped as described above. […] A total of 44 mice were analyzed (1 Akp2^−/− homozygous mouse was omitted in the PBS group). Mice were scanned using microCT and analyzed as described above. […]

Question: Which results are given for `CCCCN1C[C@H](O)[C@@H](O)[C@H](O)[C@H]1CO` [Miglustat, (2R,3R,4R,5S)-1-butyl-2-(hydroxymethyl)piperidine-3,4,5-triol]?
Answer: Trabecular separation (Tb.Sp), femur ([1]; FIG. 24): decrease; Appearance of trabeculae (microCT images) ([1]; Homozygotes (KO), 400 and 1200 mg/kg, FIGS. 20A-20D): restore the appearance of narrow trabeculae; Overall bone volume (bone volume fraction), femur ([1]; after treatment, FIG. 21): not significantly increased; Trabecular number (Tb.N), femur ([1]; heterozygotes and homozygotes, FIG. 26): changed; Connectivity density (Conn. D), femur ([1]; heterozygotes or homozygotes, FIG. 28): did not change; Trabecular thickness (Tb.Th), femur ([1]; homozygotes, FIG. 22): lower; Structure model index (SMI), femur ([1]; homozygous AKP mice, FIG. 27): increased; Trabecular thickness (Tb.Th), lumbar vertebrae ([2]; 400 mg/kg, FIG. 30): increased; Trabecular separation (Tb.Sp), lumbar vertebrae ([2]; FIG. 31): increased proportional to dose; Trabecular number (Tb.N), lumbar vertebrae ([2]; FIG. 32): did not change significantly; Degree of anisotropy (DA), lumbar vertebrae ([2]; FIG. 35): increased; Structure model index (SMI), lumbar vertebrae ([2]; homozygote mice, FIG. 33): decreased; Connectivity density (Conn. D), lumbar vertebrae ([2]; homozygotes, high doses, FIG. 34): increased; Overall bone volume (bone volume fraction), lumbar vertebrae ([2]; homozygotes, FIG. 29): not significantly increased; Bone at primary ossification centers (X-Rays of femurs) [3]: increased
